How the values were obtained:
Format in all cases: in vivo
Conditions in all cases: treatment dosage 320 g/ha
[1] = system: bulrush; test: Test Example 1: weedkilling efficacy, preemergent weed treatment in the submerged state; B: bulrush
How it was run: (§1)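 Submerged pre-emergence treatment, water-surface application of compound emulsion at g/ha dosages; 4 cm flooded alluvial soil, weeds sown and 2.5-leaf rice transplanted same day. Rated after 3 weeks, greenhouse.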

[2] = system: Indian mallow; test: Test Example 3: weedkilling efficacy through soil treatment; K: Indian mallow
How it was run: (§2)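 Crop and weed responses were judged three weeks after a uniform surface spray of the water-diluted emulsion at the given g/ha rate. Seeds sat beneath about 1.5 cm of sterilized diluvial soil, and boxes stood in a greenhouse at 25 to 30° C.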

[3] = system: catchweed; test: Test Example 4: weedkilling efficacy by foliar treatment; O: catchweed
How it was run: (§3)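 Seeds are spot-sown into sterilized diluvial soil and covered with about 1.5 cm of soil. After 14 days' greenhouse growth at 25 to 30° C, plants are sprayed on stems and leaves with diluted emulsion at the stated g/ha rate, then scored at 3 weeks.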

[4] = system: corn; test: Test Example 4: foliar treatment, effect on crop; c: corn
How it was run: as §3

[5] = system: catchweed; test: Test Example 3: weedkilling efficacy through soil treatment; O: catchweed
How it was run: as §2

[6] = system: Italian ryegrass; test: Test Example 4: weedkilling efficacy by foliar treatment; I: Italian ryegrass
How it was run: as §3

[7] = system: black-grass; test: Test Example 4: weedkilling efficacy by foliar treatment; H: black-grass
How it was run: as §3

[8] = system: rapeseed; test: Test Example 3: soil treatment, effect on crop; g: rapeseed
How it was run: as §2

[9] = system: beet; test: Test Example 3: soil treatment, effect on crop; f: beet
How it was run: as §2

[10] = system: wild oat; test: Test Example 3: weedkilling efficacy through soil treatment; G: wild oat
How it was run: as §2

[11] = system: wheat; test: Test Example 3: soil treatment, effect on crop; e: wheat
How it was run: as §2

[12] = system: birds-eye speedwell; test: Test Example 3: weedkilling efficacy through soil treatment; p: birds-eye speedwell
How it was run: as §2

[13] = system: fig-leafed goosefoot; test: Test Example 4: weedkilling efficacy by foliar treatment; M: fig-leafed goosefoot
How it was run: as §3

[14] = system: crabgrass; test: Test Example 4: weedkilling efficacy by foliar treatment; D: crabgrass
How it was run: as §3

[15] = system: common wind-grass; test: Test Example 3: weedkilling efficacy through soil treatment; J: common wind-grass
How it was run: as §2

[16] = system: crabgrass; test: Test Example 3: weedkilling efficacy through soil treatment; D: crabgrass
How it was run: as §2

[17] = system: soybean; test: Test Example 3: soil treatment, effect on crop; d: soybean
How it was run: as §2

[18] = system: oval-leafed pondweed; test: Test Example 2: weedkilling efficacy, growth period weed treatment in the submerged state; C: oval-leafed pondweed
How it was run: (§4)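 Seedlings at 1-2 leaves in 4 cm-deep submerged alluvial soil received emulsion formulations on the water surface, dosed per hectare; effects were judged 3 weeks on.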

[19] = system: corn; test: Test Example 3: soil treatment, effect on crop; c: corn
How it was run: as §2

[20] = system: wild oat; test: Test Example 4: weedkilling efficacy by foliar treatment; G: wild oat
How it was run: as §3

[21] = system: oval-leafed pondweed; test: Test Example 1: weedkilling efficacy, preemergent weed treatment in the submerged state; C: oval-leafed pondweed
How it was run: as §1

[22] = system: fig-leafed goosefoot; test: Test Example 3: weedkilling efficacy through soil treatment; M: fig-leafed goosefoot
How it was run: as §2

[23] = system: chickweed; test: Test Example 3: weedkilling efficacy through soil treatment; N: chickweed
How it was run: as §2

[24] = system: redroot pigweed; test: Test Example 3: weedkilling efficacy through soil treatment; L: redroot pigweed
How it was run: as §2

[25] = system: barnyard grass; test: Test Example 2: weedkilling efficacy, growth period weed treatment in the submerged state; A: barnyard grass
How it was run: as §4

[26] = system: rapeseed; test: Test Example 4: foliar treatment, effect on crop; g: rapeseed
How it was run: as §3

[27] = system: green foxtail; test: Test Example 4: weedkilling efficacy by foliar treatment; E: green foxtail
How it was run: as §3

[28] = system: chickweed; test: Test Example 4: weedkilling efficacy by foliar treatment; N: chickweed
How it was run: as §3

[29] = system: directly sown rice; test: Test Example 4: foliar treatment, effect on crop; b: directly sown rice
How it was run: as §3

[30] = system: birds-eye speedwell; test: Test Example 4: weedkilling efficacy by foliar treatment; p: birds-eye speedwell
How it was run: as §3

[31] = system: transplanted rice; test: Test Example 1: preemergent weed treatment in the submerged state, effect on crop; a: transplanted rice
How it was run: as §1

[32] = system: soybean; test: Test Example 4: foliar treatment, effect on crop; d: soybean
How it was run: as §3

[33] = system: barnyard grass; test: Test Example 1: weedkilling efficacy, preemergent weed treatment in the submerged state; A: barnyard grass
How it was run: as §1

[34] = system: green foxtail; test: Test Example 3: weedkilling efficacy through soil treatment; E: green foxtail
How it was run: as §2

[35] = system: Indian mallow; test: Test Example 4: weedkilling efficacy by foliar treatment; K: Indian mallow
How it was run: as §3

[36] = system: barnyard grass; test: Test Example 4: weedkilling efficacy by foliar treatment; F: barnyard grass
How it was run: as §3

[37] = system: directly sown rice; test: Test Example 3: soil treatment, effect on crop; b: directly sown rice
How it was run: as §2

[38] = system: redroot pigweed; test: Test Example 4: weedkilling efficacy by foliar treatment; L: redroot pigweed
How it was run: as §3

[39] = system: common wind-grass; test: Test Example 4: weedkilling efficacy by foliar treatment; J: common wind-grass
How it was run: as §3

[40] = system: Italian ryegrass; test: Test Example 3: weedkilling efficacy through soil treatment; I: Italian ryegrass
How it was run: as §2

[41] = system: wheat; test: Test Example 4: foliar treatment, effect on crop; e: wheat
How it was run: as §3

[42] = system: beet; test: Test Example 4: foliar treatment, effect on crop; f: beet
How it was run: as §3

[43] = system: barnyard grass; test: Test Example 3: weedkilling efficacy through soil treatment; F: barnyard grass
How it was run: as §2

[44] = system: black-grass; test: Test Example 3: weedkilling efficacy through soil treatment; H: black-grass
How it was run: as §2

## CC1=C(c2ccccc2)C(=O)N(C(C)(C)C(=O)Nc2ccc3ccccc3n2)CO1 [B-1-18]
[1]
  B (bulrush) weedkilling efficacy grade: 5 (weed kill ratio 90% or more, (practically complete withering))
[2]
  K (Indian mallow) weedkilling efficacy grade: 0 (weed kill ratio 5% or less (practically no effect))
[3]
  O (catchweed) weedkilling efficacy grade: 4 (weed kill ratio 70% or more, less than 90%)
[4]
  c (corn) effect on crop grade: 1 (weed kill ratio 5% or more, less than 20%)
[5]
  O (catchweed) weedkilling efficacy grade: 0 (weed kill ratio 5% or less (practically no effect))
[6]
  I (Italian ryegrass) weedkilling efficacy grade: 1 (weed kill ratio 5% or more, less than 20%)
[7]
  H (black-grass) weedkilling efficacy grade: 1 (weed kill ratio 5% or more, less than 20%)
[8]
  g (rapeseed) effect on crop grade: 0 (weed kill ratio 5% or less (practically no effect))
[9]
  f (beet) effect on crop grade: 0 (weed kill ratio 5% or less (practically no effect))
[10]
  G (wild oat) weedkilling efficacy grade: 0 (weed kill ratio 5% or less (practically no effect))
[11]
  e (wheat) effect on crop grade: 0 (weed kill ratio 5% or less (practically no effect))
[12]
  P (birds-eye speedwell) weedkilling efficacy grade: 0 (weed kill ratio 5% or less (practically no effect))
[13]
  M (fig-leafed goosefoot) weedkilling efficacy grade: 3 (weed kill ratio 40% or more, less than 70%)
[14]
  D (crabgrass) weedkilling efficacy grade: 2 (weed kill ratio 20% or more, less than 40%)
[15]
  J (common wind-grass) weedkilling efficacy grade: 5 (weed kill ratio 90% or more, (practically complete withering))
[16]
  D (crabgrass) weedkilling efficacy grade: 3 (weed kill ratio 40% or more, less than 70%)
[17]
  d (soybean) effect on crop grade: 0 (weed kill ratio 5% or less (practically no effect))
[18]
  C (oval-leafed pondweed) weedkilling efficacy grade: 5 (weed kill ratio 90% or more, (practically complete withering))
[19]
  c (corn) effect on crop grade: 0 (weed kill ratio 5% or less (practically no effect))
[20]
  G (wild oat) weedkilling efficacy grade: 0 (weed kill ratio 5% or less (practically no effect))
[21]
  C (oval-leafed pondweed) weedkilling efficacy grade: 5 (weed kill ratio 90% or more, (practically complete withering))
[22]
  M (fig-leafed goosefoot) weedkilling efficacy grade: 0 (weed kill ratio 5% or less (practically no effect))
[23]
  N (chickweed) weedkilling efficacy grade: 0 (weed kill ratio 5% or less (practically no effect))
[24]
  L (redroot pigweed) weedkilling efficacy grade: 0 (weed kill ratio 5% or less (practically no effect))
[25]
  A (barnyard grass) weedkilling efficacy grade: 4 (weed kill ratio 70% or more, less than 90%)
[26]
  g (rapeseed) effect on crop grade: 3 (weed kill ratio 40% or more, less than 70%)
[27]
  E (green foxtail) weedkilling efficacy grade: 3 (weed kill ratio 40% or more, less than 70%)
[28]
  N (chickweed) weedkilling efficacy grade: 3 (weed kill ratio 40% or more, less than 70%)
[29]
  b (directly sown rice) effect on crop grade: 0 (weed kill ratio 5% or less (practically no effect))
[30]
  P (birds-eye speedwell) weedkilling efficacy grade: 4 (weed kill ratio 70% or more, less than 90%)
[31]
  a (transplanted rice) effect on crop grade: 0 (weed kill ratio 5% or less (practically no effect))
[32]
  d (soybean) effect on crop grade: 0 (weed kill ratio 5% or less (practically no effect))
[33]
  A (barnyard grass) weedkilling efficacy grade: 5 (weed kill ratio 90% or more, (practically complete withering))
[34]
  E (green foxtail) weedkilling efficacy grade: 4 (weed kill ratio 70% or more, less than 90%)
[35]
  K (Indian mallow) weedkilling efficacy grade: 3 (weed kill ratio 40% or more, less than 70%)
[36]
  F (barnyard grass) weedkilling efficacy grade: 2 (weed kill ratio 20% or more, less than 40%)
[37]
  b (directly sown rice) effect on crop grade: 0 (weed kill ratio 5% or less (practically no effect))
[38]
  L (redroot pigweed) weedkilling efficacy grade: 2 (weed kill ratio 20% or more, less than 40%)
[39]
  J (common wind-grass) weedkilling efficacy grade: 3 (weed kill ratio 40% or more, less than 70%)
[40]
  I (Italian ryegrass) weedkilling efficacy grade: 2 (weed kill ratio 20% or more, less than 40%)
[41]
  e (wheat) effect on crop grade: 0 (weed kill ratio 5% or less (practically no effect))
[42]
  f (beet) effect on crop grade: 0 (weed kill ratio 5% or less (practically no effect))
[43]
  F (barnyard grass) weedkilling efficacy grade: 1 (weed kill ratio 5% or more, less than 20%)
[44]
  H (black-grass) weedkilling efficacy grade: 2 (weed kill ratio 20% or more, less than 40%)
